Data from patent US9963448B2, “Bicyclic inhibitors of PAD4” (Padlock Therapeutics, Inc., priority 2015, dated 2018).
Counter-ions that a name gives are not always drawn. Like-named read-outs stand apart in the source and are kept apart here.

What was measured:
mPAD4 = mPAD4 (Mus musculus, UniProt Q9Z183); test: mPAD4 RFMS PAD4 inhibition assay; assay type: biochemical; conditions: mPAD4, RFMS readout;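 on mPAD4 RFMS pIC50: grade E means pIC50 at most 4 and F means pIC50 4.0 to 5.0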
Protocol: (§1) Compounds of the present invention were assayed as inhibitors of PAD4 using the assay protocol described below.
(§2) Compound stock solutions were stored at RT. […] Final assay conditions were as follows:
(§3) Total incubation time: 65 mins at 37° C.
(§4) Stop solution: 40 μl 5% TCA in ACN
(§5) The compound numbers correspond to the compound numbers in Table 1. […] The term pIC50=−log(IC50). […] “NA” stands for “not assayed.”

hPAD4 = hPAD4 (Homo sapiens, UniProt Q9UM07); test: hPAD4 RFMS (RapidFire mass spectrometry) PAD4 inhibition assay; assay type: biochemical; conditions: hPAD4 enzyme, RFMS readout;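 on hPAD4 RFMS pIC50: grade E means pIC50 at most 4 and F means pIC50 4.0 to 5.0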
Protocol: as §1, §2, §3, §4, §5

[1] = pIC50=−log(IC50), read-out: mPAD4 RFMS pIC50 (converted)
[2] = pIC50=−log(IC50), read-out: hPAD4 RFMS pIC50 (converted)

Sequence of mPAD4 (Q9Z183 whole entry): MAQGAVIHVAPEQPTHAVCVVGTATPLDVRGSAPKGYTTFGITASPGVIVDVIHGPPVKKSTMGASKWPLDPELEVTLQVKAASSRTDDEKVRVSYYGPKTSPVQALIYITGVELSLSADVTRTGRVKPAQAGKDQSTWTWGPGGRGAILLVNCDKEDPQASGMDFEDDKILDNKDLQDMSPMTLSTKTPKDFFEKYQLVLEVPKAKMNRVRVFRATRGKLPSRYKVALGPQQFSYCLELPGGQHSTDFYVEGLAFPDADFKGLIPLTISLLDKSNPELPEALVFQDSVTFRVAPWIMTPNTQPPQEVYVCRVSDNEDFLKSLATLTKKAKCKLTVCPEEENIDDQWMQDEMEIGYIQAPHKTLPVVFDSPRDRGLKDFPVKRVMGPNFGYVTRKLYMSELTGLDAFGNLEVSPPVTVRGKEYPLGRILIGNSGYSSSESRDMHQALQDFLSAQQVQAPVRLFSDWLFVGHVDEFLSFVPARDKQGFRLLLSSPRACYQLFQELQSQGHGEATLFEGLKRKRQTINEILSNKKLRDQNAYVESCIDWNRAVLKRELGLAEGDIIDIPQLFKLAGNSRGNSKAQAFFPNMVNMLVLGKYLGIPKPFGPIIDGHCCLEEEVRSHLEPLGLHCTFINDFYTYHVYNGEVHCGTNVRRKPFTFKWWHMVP
Sequence of hPAD4 (Q9UM07 whole entry): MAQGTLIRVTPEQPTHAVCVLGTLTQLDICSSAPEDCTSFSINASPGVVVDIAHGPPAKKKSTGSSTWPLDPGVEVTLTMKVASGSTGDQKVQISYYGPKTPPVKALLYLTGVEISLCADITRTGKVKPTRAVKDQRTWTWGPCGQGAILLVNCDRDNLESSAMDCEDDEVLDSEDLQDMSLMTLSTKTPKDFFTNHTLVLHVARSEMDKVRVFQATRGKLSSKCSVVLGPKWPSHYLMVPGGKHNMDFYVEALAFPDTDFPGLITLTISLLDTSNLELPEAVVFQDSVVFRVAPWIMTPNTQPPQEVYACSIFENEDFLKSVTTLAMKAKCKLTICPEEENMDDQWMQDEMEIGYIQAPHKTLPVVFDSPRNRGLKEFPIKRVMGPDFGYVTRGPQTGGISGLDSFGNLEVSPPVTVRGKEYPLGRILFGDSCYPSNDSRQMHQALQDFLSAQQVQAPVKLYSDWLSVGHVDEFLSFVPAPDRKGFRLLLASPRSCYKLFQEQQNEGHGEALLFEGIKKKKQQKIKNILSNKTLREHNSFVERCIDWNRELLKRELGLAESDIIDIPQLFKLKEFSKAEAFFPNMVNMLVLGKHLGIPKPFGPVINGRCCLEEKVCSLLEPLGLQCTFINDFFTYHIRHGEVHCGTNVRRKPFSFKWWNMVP

| IC50 (mPAD4; [1]) [nM] | IC50 (mPAD4; read-out: mPAD4 RFMS IC50) [nM] | IC50 (hPAD4; [2]) [nM] | IC50 (hPAD4; read-out: hPAD4 RFMS IC50) [nM] | mPAD4 RFMS pIC50 (mPAD4; pIC50=−log(IC50)) | hPAD4 RFMS pIC50 (hPAD4; pIC50=−log(IC50)) | Compound |
| --- | --- | --- | --- | --- | --- | --- |
| < 1000 | < 1000 | < 1000 | < 1000 | – | – | COc1cc(C(=O)N2C[C@H]3CC[C@@H]2[C@@H]3N)cc2nc(-c3cc4cccnc4n3CC3CC3)n(CCSC)c12 [Compound I-235] |
| – | > 10000 | – | > 10000 | E/F | E/F | COc1cc(C(=O)N2C[C@H](N)CC[C@H]2CO)cc2nc(-c3cc4cccnc4n3CC3CC3)n(C)c12 (single isomer, unassigned) [Compound I-226] |
| < 1000 | < 1000 | < 1000 | < 1000 | – | – | COc1cc(C(=O)N2C[C@H]3CC[C@@H]2[C@@H]3N)cc2nc(-c3cc4cccnc4n3CC3CC3)n([C@H]3C[C@H](F)C3)c12 [Compound I-224] |
| < 1000 | < 1000 | < 1000 | < 1000 | – | – | COc1cc(C(=O)N2C[C@H]3CC[C@@H]2[C@@H]3N)cc2nc(-c3cc4cccnc4n3CC3CC3)n([C@H]3C[C@@H](F)C3)c12 [Compound I-225] |

Continued, compound first:

| Compound | IC50 (mPAD4; [1]) [nM] | IC50 (mPAD4; read-out: mPAD4 RFMS IC50) [nM] | IC50 (hPAD4; [2]) [nM] | IC50 (hPAD4; read-out: hPAD4 RFMS IC50) [nM] | mPAD4 RFMS pIC50 (mPAD4; pIC50=−log(IC50)) | hPAD4 RFMS pIC50 (hPAD4; pIC50=−log(IC50)) |
| --- | --- | --- | --- | --- | --- | --- |
| CN[C@@H]1C[C@@H](O)CN(C(=O)c2cc(OC)c3c(c2)nc(-c2cc4cccnc4n2CC2CC2)n3C)C1 (racemic) [Compound I-77, Rel-(3R,5R)-1-{2-[1-(cyclopropylmethyl)-1H-pyrrolo[2,3-b]pyridin-2-yl]-7-methoxy-1-methyl-1H-1,3-benzodiazole-5-carbonyl}-5-(methylamino)piperidin-3-ol hydrochloride] | 10000 to 100000 | > 10000 | 10000 to 100000 | > 10000 | – | – |
| COc1ccc2cc(-c3nc4cc(C(=O)N5C[C@H](N)C[C@@H](F)C5)cc(OC(F)F)c4n3C)n(CC3CC3)c2n1 [Compound I-109, (3R,5R)-1-{2-[1-(cyclopropylmethyl)-6-methoxy-1H-pyrrolo[2,3-b]pyridin-2-yl]-7-(difluoromethoxy)-1-methyl-1H-1,3-benzodiazole-5-carbonyl}-5-fluoropiperidin-3-amine] | < 1000 | < 1000 | < 1000 | < 1000 | – | – |
| COc1cc(C(=O)N2CC[C@@H](OC)[C@@H](N)C2)cc2nc(-c3cc4cccnc4n3CC3CC3)n(C)c12 [Compound I-121] | < 1000 | < 1000 | < 1000 | < 1000 | – | – |
| Cn1c(-c2cc3cccnc3n2CC2CC2)nc2cc(C(=O)N3CCC[C@@H](N)C3)cc(CO)c21 [Compound I-128, {5-[(3R)-3-aminopiperidine-1-carbonyl]-2-[1-(cyclopropylmethyl)-1H-pyrrolo[2,3-b]pyridin-2-yl]-1-methyl-1H-1,3-benzodiazol-7-yl}methanol] | 1000 to 10000 | 1000 to 5000 | 1000 to 10000 | 1000 to 5000 | – | – |
| COc1cc(C(=O)N2C[C@H]3CC4OC(=O)N[C@H]3[C@@H]42)cc2nc(-c3cc4cccnc4n3CC3CC3)n(C)c12 [Compound I-187, (1S,2R,8R)-10-{2-[1-(Cyclopropylmethyl)-1H-pyrrolo[2,3-b]pyridin-2-yl]-7-methoxy-1-methyl-1H-1,3-benzodiazole-5-carbonyl}-5-oxa-3,10-diazatricyclo[4.4.0.0^2,8]decan-4-one] | 10000 to 100000 | > 10000 | 10000 to 100000 | > 10000 | – | – |
| COCCn1c(-c2nc3cc(C(=O)N4C[C@H]5CC[C@@H]4[C@@H]5N)ccc3n2C)cc2ccc(OC)nc21 [Compound I-192] | 1000 to 10000 | 5000 to 10000 | < 1000 | < 1000 | – | – |
| Cn1c(-c2cc3cccnc3n2CC2CC2)nc2cc(C(=O)N3CCC[C@@H](N)C3)cc(OCC(F)(F)F)c21 [Compound I-59] | < 1000 | < 1000 | 1000 to 10000 | 1000 to 5000 | – | – |
| COc1cc(C(=O)N2C[C@H]3CC[C@@H]2[C@@H]3N)cc2nc(-c3cc4cccnc4n3CC3CC3)n([C@H]3C[C@@H](OC)C3)c12 [Compound I-219] | 1000 to 10000 | 1000 to 5000 | < 1000 | < 1000 | – | – |
